According to patent US12077503B2, “Substituted cyclic amides and their use as herbicides” (FMC CORPORATION, priority 2015, dated 2024):

Assays:
Assay type in all cases: in vivo
[1] = test system: ragweed (common ragweed, Ambrosia elatior); experiment: Test A preemergence; conditions: Ambrosia artemisiifolia, pre-emergence, 240 h, Preemergence
Outline: (§1)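 Ratings of 0 (no effect) to 100 (complete control) come from visual comparison with untreated controls roughly 10 d after treatment. Test chemicals, formulated in a non-phytotoxic solvent mixture with surfactant, were applied either as a preemergence directed soil spray on seeded soil or postemergence to one- to two-leaf plants 2 to 10 cm tall.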

Kochia (Kochia scoparia) [2] = experiment: Test A preemergence; conditions: Bassia scoparia, pre-emergence, 240 h, Preemergence
Outline: as §1

[3] = test system: pigweed (Amaranthus retroflexus); experiment: Test A preemergence; conditions: Amaranthus retroflexus, pre-emergence, 240 h, Preemergence
[4] = test system: giant foxtail (Setaria faberii); experiment: Test A preemergence; conditions: Setaria faberi, pre-emergence, 240 h, Preemergence
Outline: as §1

[5] = test system: ryegrass, Italian (Italian ryegrass, Lolium multiflorum); experiment: Test A preemergence; conditions: Lolium multiflorum, pre-emergence, 240 h, Preemergence
Outline: as §1

[6] = test system: barnyardgrass (Echinochloa crus-galli); experiment: Test A preemergence; conditions: Echinochloa crus-galli, pre-emergence, 240 h, Preemergence
Outline: as §1

[7] = test system: blackgrass (Alopecurus myosuroides); experiment: Test A postemergence; conditions: Alopecurus myosuroides, post-emergence, 240 h
Outline: as §1

[8] = test system: wheat (Triticum aestivum); experiment: Test A postemergence; conditions: Triticum aestivum, post-emergence, 240 h
Outline: as §1

[9] = test system: ragweed (common ragweed, Ambrosia elatior); experiment: Test A postemergence; conditions: Ambrosia artemisiifolia, post-emergence, 240 h
Outline: as §1

Kochia (Kochia scoparia) [10] = experiment: Test A postemergence; conditions: Bassia scoparia, post-emergence, 240 h
Outline: as §1

[11] = test system: Galium (catchweed bedstraw, Galium aparine); experiment: Test A postemergence; conditions: Galium, post-emergence, 240 h
Outline: as §1

[12] = test system: pigweed (Amaranthus retroflexus); experiment: Test A postemergence; conditions: Amaranthus retroflexus, post-emergence, 240 h
Outline: as §1

[13] = test system: giant foxtail (Setaria faberii); experiment: Test A postemergence; conditions: Setaria faberi, post-emergence, 240 h
Outline: as §1

[14] = test system: ryegrass, Italian (Italian ryegrass, Lolium multiflorum); experiment: Test A postemergence; conditions: Lolium multiflorum, post-emergence, 240 h
Outline: as §1

[15] = test system: barnyardgrass (Echinochloa crus-galli); experiment: Test A postemergence; conditions: Echinochloa crus-galli, post-emergence, 240 h
Outline: as §1

corn (Zea mays) = experiment: Test A postemergence; conditions: Zea mays, post-emergence, 240 h
Outline: as §1

[16] = test system: ducksalad (Heteranthera limosa); experiment: Test B flooded paddy test; conditions: Heteranthera limosa, 250 g ai/ha, Flood; 0 to 100 scale where 0 is no effect and 100 is complete control; read-out: Ducksalad plant response rating
Outline: (§2)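 Percent control, visually estimated after 13–15 d in the greenhouse on a 0–100 basis, compares treated pots with untreated ones; compound was put into paddy water 3 cm above the soil when plants had two leaves.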

rice (Oryra sativa) = experiment: Test B flooded paddy test; conditions: Oryza sativa, 250 g ai/ha, Flood; 0 to 100 scale where 0 is no effect and 100 is complete control; read-out: Rice plant response rating
Outline: as §2

[17] = test system: sedge, umbrella (small-flower umbrella sedge, Cyperus difformis); experiment: Test B flooded paddy test; conditions: Cyperus difformis, 250 g ai/ha, Flood; 0 to 100 scale where 0 is no effect and 100 is complete control; read-out: Sedge, Umbrella plant response rating
Outline: as §2

[18] = test system: barnyardgrass (Echinochloa crus-galli); experiment: Test B flooded paddy test; conditions: Echinochloa crus-galli, 250 g ai/ha, Flood; 0 to 100 scale where 0 is no effect and 100 is complete control; read-out: Barnyardgrass plant response rating
Outline: as §2

Compound `CSc1ccccc1NC(=O)[C@H]1C(=O)NC[C@@H]1c1ccc(C(F)(F)F)cn1` [Compound 1050] has a pest or weed control at 31 g/ha ([1]; 31 g ai/ha, 0 to 100 scale where 0 is no effect and 100 is complete control, read-out: Ragweed plant response rating) of 0%, a pest or weed control at 125 g/ha ([1]; 125 g ai/ha, visual injury rating after approximately 10 d, read-out: Ragweed plant response rating (0 to 100 scale, 0 is no effect, 100 is complete control)) of 0% and a pest or weed control at 31 g/ha (Kochia (Kochia scoparia) [2]; 31 g ai/ha, 0 to 100 scale where 0 is no effect and 100 is complete control, read-out: Kochia plant response rating) of 0%. It also gave a pest or weed control at 125 g/ha (Kochia (Kochia scoparia) [2]; 125 g ai/ha, visual injury rating after approximately 10 d, read-out: Kochia plant response rating (0 to 100 scale, 0 is no effect, 100 is complete control)) of 0%, a pest or weed control at 31 g/ha ([3]; 31 g ai/ha, 0 to 100 scale where 0 is no effect and 100 is complete control, read-out: Pigweed plant response rating) of 0% and a pest or weed control at 125 g/ha ([3]; 125 g ai/ha, visual injury rating after approximately 10 d, read-out: Pigweed plant response rating (0 to 100 scale, 0 is no effect, 100 is complete control)) of 0%. For the same compound, the pest or weed control at 125 g/ha ([4]; 125 g ai/ha, visual injury rating after approximately 10 d, read-out: Foxtail, Giant plant response rating (0 to 100 scale, 0 is no effect, 100 is complete control)) was 0%, the pest or weed control at 31 g/ha ([4]; 31 g ai/ha, 0 to 100 scale (0 no effect, 100 complete control), read-out: Plant response rating, Foxtail, Giant) was 0% and the pest or weed control at 31 g/ha ([5]; 31 g ai/ha, 0 to 100 scale where 0 is no effect and 100 is complete control, read-out: Ryegrass, Italian plant response rating) was 0%. For the same compound, the pest or weed control at 125 g/ha ([5]; 125 g ai/ha, visual injury rating after approximately 10 d, read-out: Ryegrass, Italian plant response rating (0 to 100 scale, 0 is no effect, 100 is complete control)) was 0%, the pest or weed control at 125 g/ha ([6]; 125 g ai/ha, visual injury rating after approximately 10 d, read-out: Barnyardgrass plant response rating (0 to 100 scale, 0 is no effect, 100 is complete control)) was 0% and the pest or weed control at 31 g/ha ([6]; 31 g ai/ha, 0 to 100 scale (0 no effect, 100 complete control), read-out: Plant response rating, Barnyardgrass) was 0%. It also gave a pest or weed control at 125 g/ha ([7]; 125 g ai/ha, postemergence, visual injury on 0 to 100 scale (0 no effect, 100 complete control), approx. 10 d, read-out: Blackgrass plant response rating) of 0%, a pest or weed control at 31 g/ha ([7]; Postemergence, 31 g ai/ha, visual injury after approx. 10 d, 0 to 100 scale, 0 no effect, 100 complete control, read-out: Plant response rating, Blackgrass) of 0% and a plant injury at 125 g/ha ([8]; 125 g ai/ha, postemergence, visual injury on 0 to 100 scale (0 no effect, 100 complete control), approx. 10 d, read-out: Wheat plant response rating) of 0%. The plant injury at 31 g/ha ([8]; Postemergence, 31 g ai/ha, visual injury after approx. 10 d, 0 to 100 scale, 0 no effect, 100 complete control, read-out: Plant response rating, Wheat) was 0%, the pest or weed control at 125 g/ha ([9]; 125 g ai/ha, postemergence, visual injury on 0 to 100 scale (0 no effect, 100 complete control), approx. 10 d, read-out: Ragweed plant response rating) was 0% and the pest or weed control at 31 g/ha ([9]; Postemergence, 31 g ai/ha, visual injury after approx. 10 d, 0 to 100 scale, 0 no effect, 100 complete control, read-out: Plant response rating, Ragweed) was 0%. For the same compound, the pest or weed control at 125 g/ha (Kochia (Kochia scoparia) [10]; 125 g ai/ha, postemergence, visual injury on 0 to 100 scale (0 no effect, 100 complete control), approx. 10 d, read-out: Kochia plant response rating) was 0%, the pest or weed control at 31 g/ha (Kochia (Kochia scoparia) [10]; Postemergence, 31 g ai/ha, visual injury after approx. 10 d, 0 to 100 scale, 0 no effect, 100 complete control, read-out: Plant response rating, Kochia) was 0% and the pest or weed control at 125 g/ha ([11]; 125 g ai/ha, postemergence, visual injury on 0 to 100 scale (0 no effect, 100 complete control), approx. 10 d, read-out: Galium plant response rating) was 0%. The pest or weed control at 31 g/ha ([11]; Postemergence, 31 g ai/ha, visual injury after approx. 10 d, 0 to 100 scale, 0 no effect, 100 complete control, read-out: Plant response rating, Galium) was 0%, the pest or weed control at 125 g/ha ([12]; 125 g ai/ha, postemergence, visual injury on 0 to 100 scale (0 no effect, 100 complete control), approx. 10 d, read-out: Pigweed plant response rating) was 0% and the pest or weed control at 31 g/ha ([12]; Postemergence, 31 g ai/ha, visual injury after approx. 10 d, 0 to 100 scale, 0 no effect, 100 complete control, read-out: Plant response rating, Pigweed) was 0%. The pest or weed control at 125 g/ha ([13]; 125 g ai/ha, postemergence, visual injury on 0 to 100 scale (0 no effect, 100 complete control), approx. 10 d, read-out: Foxtail, Giant plant response rating) was 0%, the pest or weed control at 31 g/ha ([13]; Postemergence, 31 g ai/ha, visual injury after approx. 10 d, 0 to 100 scale, 0 no effect, 100 complete control, read-out: Plant response rating, Foxtail, Giant) was 0% and the pest or weed control at 125 g/ha ([14]; 125 g ai/ha, postemergence, visual injury on 0 to 100 scale (0 no effect, 100 complete control), approx. 10 d, read-out: Ryegrass, Italian plant response rating) was 0%. The pest or weed control at 31 g/ha ([14]; Postemergence, 31 g ai/ha, visual injury after approx. 10 d, 0 to 100 scale, 0 no effect, 100 complete control, read-out: Plant response rating, Ryegrass, Italian) was 0%, the pest or weed control at 125 g/ha ([15]; 125 g ai/ha, postemergence, visual injury on 0 to 100 scale (0 no effect, 100 complete control), approx. 10 d, read-out: Barnyardgrass plant response rating) was 0% and the pest or weed control at 31 g/ha ([15]; Postemergence, 31 g ai/ha, visual injury after approx. 10 d, 0 to 100 scale, 0 no effect, 100 complete control, read-out: Plant response rating, Barnyardgrass) was 0%. For the same compound, the plant injury at 125 g/ha (corn (Zea mays); 125 g ai/ha, postemergence, visual injury on 0 to 100 scale (0 no effect, 100 complete control), approx. 10 d, read-out: Corn plant response rating) was 0%, the Corn plant response rating (crop injury, 0 = no effect, 100 = complete kill) at 31 g/ha (corn (Zea mays); Postemergence, 31 g ai/ha, visual injury after approx. 10 d, 0 to 100 scale, 0 no effect, 100 complete control) was 0% and the pest or weed control at 250 g/ha [16] was 85%. For the same compound, the pest or weed control at 250 g/ha (rice (Oryra sativa)) was 0%, the pest or weed control at 250 g/ha [17] was 0% and the pest or weed control at 250 g/ha [18] was 0%.
